Assay results as given in paper PMC11062899, “De novo development of small cyclic peptides that are orally bioavailable” (Nature Chemical Biology, 2023).
Several values for one entry are separate records, joined by “and”; a condition that tells them apart may be missing. Identical values can stand only once. Like-named read-outs stand apart in the source and are kept apart here.

Tests used:
rat α-thrombin = biological target: T1, rat α-thrombin (Rattus norvegicus, UniProt P18292); experiment: Protease inhibition, Ki for rat α-thrombin (fluorogenic substrate Z-Gly-Gly-Arg-AMC); format: biochemical; details: for Rat alpha thrombin inhibition, slope normalized to DMSO: replicates R1-R3
T1 construct: rat α-thrombin (Molecular Innovations) were used at final concentrations of 2 nM and 3 nM; purchased Molecular Innovations
Description: (§1) The inhibition constants (Ki) of cyclic peptides were calculated by measuring thrombin inhibition in the presence of different concentrations of the cyclic peptides. […] Human α-thrombin (Molecular Innovations) and rat α-thrombin (Molecular Innovations) were used at final concentrations of 2 nM and 3 nM, respectively, and fluorogenic substrate (Z-Gly-Gly-Arg-AMC, Bachem) was used at a concentration of 50 μM. Enzymatic activity was determined by measuring fluorescent gain on a Tecan Infinite M200 Pro microplate reader (excitation: 360 nm, emission: 465 nm) or a PHERAstar FSX microplate reader (excitation: 380 nm, emission: 440 nm) for 30 min at 25 °C with a fluorescent readout every 3 min. The two instruments were controlled with Tecan Infinite M200 Pro instrument software (iControl, version 1.12) and PHERAstar FSX software (version 5.70, edition 8), respectively. Protease inhibition was calculated by comparing the enzymatic activity to a control without cyclic peptide.
(§2) Half maximal inhibitory concentration (IC50) values were determined using a four-parameter logistic regression model in GraphPad Prism 9 to fit sigmoidal curves to the acquired data points according to equation (2) below.2 y=b+a−b/1+10^(logIC50−x)p where a and b represent the measured inhibition maximum and minimum, respectively; x is the logarithm of peptide concentration; y is the thrombin activity compared to a control without the cyclic peptide; and p is the Hill coefficient.
(§3) Ki values were calculated using the IC50 and the Cheng–Prusoff equation (equation (3)).3 Ki=IC50/1+S0/Km where Km is the Michaelis–Menten constant of the enzyme for the substrate used in the assay, and [S]0 is the initial substrate concentration.

[1] = Passive artificial membrane permeability (PAMPA);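 on Permeability% Average: top well sample relative to theoretical equilibrium sample by TIC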
human α-thrombin = human α-thrombin (Homo sapiens, UniProt P00734); experiment: Protease inhibition, Ki for human α-thrombin (fluorogenic substrate Z-Gly-Gly-Arg-AMC); format: biochemical; details: for Human alpha thrombin inhibition, slope normalized to DMSO: replicates R1-R3
Description: as §1, §2, §3

[2] = peptide concentration 1.00E+02 uM
[3] = peptide concentration 1.19E-05 uM
[4] = peptide concentration 1.22E-02 uM
[5] = peptide concentration 1.25E+01 uM
[6] = peptide concentration 1.53E-03 uM
[7] = peptide concentration 1.56E+00 uM
[8] = peptide concentration 1.91E-04 uM
[9] = peptide concentration 1.95E-01 uM
[10] = peptide concentration 2.38E-05 uM
[11] = peptide concentration 2.44E-02 uM
[12] = peptide concentration 2.50E+01 uM
[13] = peptide concentration 3.05E-03 uM
[14] = peptide concentration 3.12E+00 uM
[15] = peptide concentration 3.81E-04 uM
[16] = peptide concentration 3.91E-01 uM
[17] = peptide concentration 4.77E-05 uM
[18] = peptide concentration 4.88E-02 uM
[19] = peptide concentration 5.00E+01 uM
[20] = peptide concentration 6.10E-03 uM
[21] = peptide concentration 6.25E+00 uM
[22] = peptide concentration 7.63E-04 uM
[23] = peptide concentration 7.81E-01 uM
[24] = peptide concentration 9.54E-05 uM
[25] = peptide concentration 9.77E-02 uM

Ki (rat α-thrombin; average of R1-R3, read-out: Rat alpha thrombin inhibition, Ki Average): 180 nM | Rat alpha thrombin inhibition, slope normalized to DMSO (rat α-thrombin; [2]): 5.3 and 5.7 and 4.1 | Rat alpha thrombin inhibition, slope normalized to DMSO (rat α-thrombin; [3]): 101.7 and 102.1 and 101.8 | Rat alpha thrombin inhibition, slope normalized to DMSO (rat α-thrombin; [4]): 87.5 and 92.0 and 84.9 | Rat alpha thrombin inhibition, slope normalized to DMSO (rat α-thrombin; [5]): 9.2 and 8.7 and 7.8 | Rat alpha thrombin inhibition, slope normalized to DMSO (rat α-thrombin; [6]): 94.8 and 97.7 and 92.4 | Rat alpha thrombin inhibition, slope normalized to DMSO (rat α-thrombin; [7]): 25.0 and 25.1 and 31.0 | Rat alpha thrombin inhibition, slope normalized to DMSO (rat α-thrombin; [8]): 106.1 and 99.6 and 88.4 | Rat alpha thrombin inhibition, slope normalized to DMSO (rat α-thrombin; [9]): 69.0 and 50.2 and 49.8 | Rat alpha thrombin inhibition, slope normalized to DMSO (rat α-thrombin; [10]): 103.2 and 98.1 and 102.8 | Rat alpha thrombin inhibition, slope normalized to DMSO (rat α-thrombin; [11]): 92.3 and 89.1 and 86.1 | Rat alpha thrombin inhibition, slope normalized to DMSO (rat α-thrombin; [12]): 4.2 and 6.8 and 8.8 | Rat alpha thrombin inhibition, slope normalized to DMSO (rat α-thrombin; [13]): 99.2 and 99.8 and 88.1 | Rat alpha thrombin inhibition, slope normalized to DMSO (rat α-thrombin; [14]): 8.2 and 23.7 and 18.2 | Rat alpha thrombin inhibition, slope normalized to DMSO (rat α-thrombin; [15]): 107.3 and 92.0 and 81.7 | Rat alpha thrombin inhibition, slope normalized to DMSO (rat α-thrombin; [16]): 38.0 and 46.4 and 45.2 | Rat alpha thrombin inhibition, slope normalized to DMSO (rat α-thrombin; [17]): 102.3 and 101.4 and 86.4 | Rat alpha thrombin inhibition, slope normalized to DMSO (rat α-thrombin; [18]): 83.5 and 87.2 and 79.0 | Rat alpha thrombin inhibition, slope normalized to DMSO (rat α-thrombin; [19]): 3.7 and 8.5 and 7.9 | Rat alpha thrombin inhibition, slope normalized to DMSO (rat α-thrombin; [20]): 92.6 and 94.8 and 84.9 | Rat alpha thrombin inhibition, slope normalized to DMSO (rat α-thrombin; [21]): 13.6 and 12.8 and 13.7 | Rat alpha thrombin inhibition, slope normalized to DMSO (rat α-thrombin; [22]): 102.3 and 100.6 and 67.7 | Rat alpha thrombin inhibition, slope normalized to DMSO (rat α-thrombin; [23]): 42.8 and 23.4 and 43.3 | Rat alpha thrombin inhibition, slope normalized to DMSO (rat α-thrombin; [24]): 92.9 and 92.2 and 96.6 | Rat alpha thrombin inhibition, slope normalized to DMSO (rat α-thrombin; [25]): 73.2 and 69.4 and 67.8 | IC50 (rat α-thrombin; single replicates R1-R3, read-out: Rat alpha thrombin inhibition, IC50): 326 nM and 228 nM and 420 nM | PAMPA permeability: % permeability ([1]; 50 μM, 12–18 h, acceptor concentration relative to equilibrium): 64 ± 11% | Permeability% (single replicates R1–R3) ([1]; 50 μM, 13 h (Fig. 5d)): 76.34% and 63.06% and 53.71% | Permeability% Average ([1]; 50 μM, 13 h (Fig. 5d)): 64.4% | Papp at 50 μM ([1]; PAMPA, pH 7.4): 9.33 ×10⁻⁶ cm/s | Ki (human α-thrombin; average of R1-R3, read-out: Human alpha thrombin inhibition, Ki Average): 1570 nM | Human alpha thrombin inhibition, slope normalized to DMSO (human α-thrombin; [2]): 9.8 and 10.5 and 10.6 | Human alpha thrombin inhibition, slope normalized to DMSO (human α-thrombin; [3]): 108.3 and 123.2 and 86.4 | Human alpha thrombin inhibition, slope normalized to DMSO (human α-thrombin; [4]): 81.6 and 60.4 and 71.9 | Human alpha thrombin inhibition, slope normalized to DMSO (human α-thrombin; [5]): 16.2 and 18.0 and 13.2 | Human alpha thrombin inhibition, slope normalized to DMSO (human α-thrombin; [6]): 102.7 and 105.3 and 96.0 | Human alpha thrombin inhibition, slope normalized to DMSO (human α-thrombin; [7]): 60.1 and 45.1 and 57.4 | Human alpha thrombin inhibition, slope normalized to DMSO (human α-thrombin; [8]): 110.2 and 100.0 and 95.6 | Human alpha thrombin inhibition, slope normalized to DMSO (human α-thrombin; [9]): 90.5 and 54.5 and 66.4 | Human alpha thrombin inhibition, slope normalized to DMSO (human α-thrombin; [10]): 111.1 and 102.0 and 98.3 | Human alpha thrombin inhibition, slope normalized to DMSO (human α-thrombin; [11]): 60.0 and 83.9 and 99.7 | Human alpha thrombin inhibition, slope normalized to DMSO (human α-thrombin; [12]): 16.8 and 4.9 and 12.0 | Human alpha thrombin inhibition, slope normalized to DMSO (human α-thrombin; [13]): 65.1 and 103.9 and 92.0 | Human alpha thrombin inhibition, slope normalized to DMSO (human α-thrombin; [14]): 47.1 and 40.3 and 37.6 | Human alpha thrombin inhibition, slope normalized to DMSO (human α-thrombin; [15]): 113.9 and 97.1 and 98.1 | Human alpha thrombin inhibition, slope normalized to DMSO (human α-thrombin; [16]): 59.1 and 81.1 and 60.5 | Human alpha thrombin inhibition, slope normalized to DMSO (human α-thrombin; [17]): 106.6 and 104.5 and 98.0 | Human alpha thrombin inhibition, slope normalized to DMSO (human α-thrombin; [18]): 96.4 and 58.3 and 94.8 | Human alpha thrombin inhibition, slope normalized to DMSO (human α-thrombin; [19]): 14.2 and 14.0 and 12.9 | Human alpha thrombin inhibition, slope normalized to DMSO (human α-thrombin; [20]): 78.1 and 71.3 and 72.1 | Human alpha thrombin inhibition, slope normalized to DMSO (human α-thrombin; [21]): 15.4 and 28.4 and 22.2 | Human alpha thrombin inhibition, slope normalized to DMSO (human α-thrombin; [22]): 61.4 and 105.9 and 50.7 | Human alpha thrombin inhibition, slope normalized to DMSO (human α-thrombin; [23]): 75.8 and 62.9 and 64.9 | Human alpha thrombin inhibition, slope normalized to DMSO (human α-thrombin; [24]): 104.3 and 61.9 and 103.5 | Human alpha thrombin inhibition, slope normalized to DMSO (human α-thrombin; [25]): 84.6 and 105.9 and 85.2 | IC50 (human α-thrombin; single replicates R1-R3, read-out: Human alpha thrombin inhibition, IC50): 2700 nM and 1730 nM and 1690 nM
Compound: O=C1C[C@H]2CCCN2C(=O)[C@H](Cc2ccccc2)NC(=O)[C@@H](NC(=O)c2ccc(Cl)s2)CCC=CCCCN1 [compound 41]
Ki (rat α-thrombin; single replicates R1-R3, read-out: Rat alpha thrombin inhibition, Ki): 180 nM (2×) and 126 nM (2×) and 232 nM (2×) | Ki (human α-thrombin; single replicates R1-R3, read-out: Human alpha thrombin inhibition, Ki): 2.08 µM (2×) and 1.34 µM (2×) and 1.3 µM (2×)
